Consider 28 molecules from patent US7022716B2, “Cyclic amine phenyl beta-3 adrenergic receptor agonists” (Wyeth, priority 2000, dated 2006).

For orientation: melting point means the temperature, or range, at which the solid turns liquid.

SMILES strings stand for the structures. Where a name gives a salt, the structure may show the parent alone.

T1 sequence (P13945 whole entry): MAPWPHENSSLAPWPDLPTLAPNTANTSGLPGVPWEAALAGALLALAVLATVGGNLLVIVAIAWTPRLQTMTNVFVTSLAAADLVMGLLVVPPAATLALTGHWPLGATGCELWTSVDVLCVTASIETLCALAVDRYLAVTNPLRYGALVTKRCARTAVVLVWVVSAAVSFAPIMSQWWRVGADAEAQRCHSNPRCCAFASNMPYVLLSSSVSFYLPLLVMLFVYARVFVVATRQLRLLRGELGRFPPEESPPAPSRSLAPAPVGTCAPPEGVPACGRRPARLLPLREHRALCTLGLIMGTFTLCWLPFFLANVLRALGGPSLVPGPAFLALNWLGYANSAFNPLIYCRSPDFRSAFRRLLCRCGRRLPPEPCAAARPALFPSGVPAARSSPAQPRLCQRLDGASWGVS

Test system in one data set: not given
Experiment: not given
Settings: not given
Consider `Cl.Nc1ccc([C@H](O)CNC2CCN(c3ccc(CC4SC(=O)NC4=O)cc3)CC2)cn1` (stereo partly shown), for which the melting point is 182 °C (dec.).
Still for that read-out and setting: for `CS(=O)(=O)Nc1cc(C(O)CNC2CCN(c3ccc(C=C4SC(=O)NC4=O)cc3)CC2)ccc1O` (stereo not shown) the value was > 200 °C (dec.).
Still for that read-out and setting: the figure for `CS(=O)(=O)Nc1ccc(C(O)CNC2CCN(c3ccc(CC4SC(=O)NC4=O)cc3)CC2)cn1` (stereo not shown) (as salt: salt) [Example 138, N-[5-(2-{1-[4-(2,4-Dioxo-thiazolidin-5-ylmethyl)-phenyl]-piperidin-4-ylamino}-1-hydroxy-ethyl)-pyridin-2-yl]-methanesulfonamide] is 57 to 59 °C; for `CS(=O)(=O)Nc1cc([C@@H](O)CNC2CCN(c3ccc(C(=O)NCC(=O)O)cc3)CC2)ccc1O` (as salt: sodium) [Example 197, [(4-{4-[((2R)-2-Hydroxy-2-{4-hydroxy-3-[(methylsulfonyl)amino]phenyl}ethyl)amino]-1-piperidinyl}benzoyl)amino]acetic acid] it is > 85 °C (dec.); for `CC(C)C[C@H](NC(=O)c1ccc(N2CCC(NC[C@H](O)c3ccc(O)c(NS(C)(=O)=O)c3)CC2)cc1)C(=O)O` (as salt: sodium) [Example 199, (2S)-2-(4-{4-[(2R)-2-Hydroxy-2-(4-hydroxy-3-methanesulfonylamino-phenyl)-ethylamino]-piperidin-1-yl}-benzoylamino)-4-methyl-pentanoic acid] it is > 177 °C (dec.).
Same read-out and setting: for `CS(=O)(=O)Nc1cc([C@@H](O)CNC2CCN(c3ccc(C(=O)N4CCC[C@H]4C(=O)O)cc3)CC2)ccc1O` (as salt: sodium) [Example 201, 1-(4-{4-[(2R)-2-Hydroxy-2-(4-hydroxy-3-methanesulfonylamino-phenyl)-ethylamino]-piperidin-1-yl}-benzoyl)-pyrrolidine-(2S)-2-carboxylic acid] the value was > 220 °C (dec.); for `CC(C)[C@H](NC(=O)c1ccc(N2CCC(NC[C@H](O)c3ccc(O)c(NS(C)(=O)=O)c3)CC2)cc1)C(=O)O` (as salt: sodium) [Example 203, (2S)-2-(4-{4-[(2R)-2-Hydroxy-2-(4-hydroxy-3-methanesulfonylamino-phenyl)-ethylamino]-piperidin-1-yl}-benzoylamino)-3-methyl-butyric acid], > 135 °C (dec.); for `CS(=O)(=O)Nc1cc([C@@H](O)CNC2CCN(c3ccc(C(=O)N[C@@H](Cc4ccccc4)C(=O)O)cc3)CC2)ccc1O` (as salt: sodium) [Example 205, (2S)-2-(4-{4-[(2R)-2-Hydroxy-2-(4-hydroxy-3-methanesulfonylamino-phenyl)-ethylamino]-piperidin-1-yl}-benzoylamino)-3-phenyl-propionic acid], > 160 °C (dec.).
Turning to `CS(=O)(=O)Nc1cc(C(O)CNC2CCN(c3ccc(CC4SC(=O)NC4=O)cc3)CC2)ccc1O` (stereo not shown) [Example 78], the melting point is > 150 °C (dec.).
Same read-out and setting: for `CC(C)S(=O)(=O)Nc1cc([C@@H](O)CNC2CCN(c3ccc(CC4SC(=O)NC4=O)cc3)CC2)ccc1O` (stereo partly drawn) [Example 94, (R)-Propane-2-sulfonic acid [5-(2-{1-[4-(2,4-dioxo-thiazolidin-5-ylmethyl)-phenyl]-piperidin-4-ylamino}-1-hydroxy-ethyl)-2-hydroxy-phenyl]-amide] the value was > 175 °C (dec.).

A further data set has as its target T1, human β3 adrenergic receptor (Homo sapiens, UniProt P13945).
T1 construct: Full length β3 AR clones (402 amino acids) containing the last 6 amino acids of hβ3-AR are prepared; expressed in transfected cells; host or cells: CHO (Chinese hamster ovary) cells
Nature of the data set: cAMP (SPA) response in CHO cells transfected with human β3 adrenergic receptor. It is filed as cell-based. Further details: key: fraction of maximal isoproterenol (10^-5 M) response. The note with it: maximal response relative to maximal response of isoproterenol at 10^-5 M. Put shortly:
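Reactions were stopped with 0.2N HCl and neutralised, and cAMP was measured by SPA. Activity is expressed as percent of the maximal 10^−5 M isoproterenol response.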
As for `COc1ccc(S(=O)(=O)Nc2ccc(N3CCC(NC[C@H](O)COc4cccc5[nH]c(=O)[nH]c45)CC3)cc2)cc1OC` [Example 359, N-{4-[4-({(2S)-2-Hydroxy-3-[(2-oxo-2,3-dihydro-1H-benzimidazol-4-yl)oxy]-propyl}amino)-1-piperidinyl]phenyl}-3,4-dimethoxybenzenesulfonamide], the “IA(β3)” value is given as 0.91.
Same read-out and setting: the figure for `COc1ccc(S(=O)(=O)Nc2ccc(N3CCC(NC[C@H](O)COc4ccccc4)CC3)cc2)cc1OC` [Example 360, N-[4-(4-{[(2S)-2-Hydroxy-3-phenoxypropyl]amino}-1-piperidinyl)phenyl]-3,4-dimethoxybenzenesulfonamide] is 0.54.
The same measure, in the same setting: the figure for `COc1ccc(S(=O)(=O)Nc2ccc(N3CCC(NCC(O)c4cccc(O)c4)CC3)cc2)cc1OC` (stereo not shown) [Example 361, N-[4-(4-{[2-Hydroxy-2-(3-hydroxyphenyl)ethyl]amino}-1-piperidinyl)phenyl]-3,4-dimethoxybenzenesulfonamide] is 0.55; for `O=c1[nH]c2cccc(OC[C@@H](O)CNC3CCN(c4ccc(NS(=O)(=O)c5cccs5)cc4)CC3)c2[nH]1` [Example 362, N-{4-[4-({(2S)-2-Hydroxy-3-[(2-oxo-2,3-dihydro-1H-benzimidazol-4-yl)oxy]propyl}-amino)-1-piperidinyl]phenyl}-2-thiophenesulfonamide] it is 0.9.
On the same count and under the same terms, for `CCOC(=O)CC(=O)Nc1ccc(N2CCC(NC[C@H](O)c3ccc(O)c(NS(C)(=O)=O)c3)CC2)cc1` [Example 371, Ethyl 3-(4-{4-[((2R)-2-hydroxy-2-{4-hydroxy-3-[(methylsulfonyl)amino]phenyl}-ethyl)-amino]-1-piperidinyl}anilino)-3-oxopropanoate] the value was 0.91; for `CS(=O)(=O)Nc1cc([C@@H](O)CNC2CCN(c3ccc(NC(=O)CC(=O)O)cc3)CC2)ccc1O` [Example 372, 3-(4-{4-[((2R)-2-Hydroxy-2-{4-hydroxy-3-[(methylsulfonyl)amino]phenyl}ethyl)amino]-1-piperidinyl}anilino)-3-oxopropanoic acid], 1.
Consider `CCOC(=O)CNC(=O)Nc1ccc(N2CCC(NC[C@H](O)c3ccc(O)c(NS(C)(=O)=O)c3)CC2)cc1` [Example 377, Ethyl {[(4-{4-[((2R)-2-hydroxy-2-{4-hydroxy-3-[(methylsulfonyl)amino]phenyl}-ethyl)amino]-1-piperidinyl}anilino)carbonyl]amino}acetate], for which the “IA(β3)” value is listed as 0.66.
The same measure, in the same setting: for `CS(=O)(=O)Nc1cc([C@@H](O)CNC2CCN(c3ccc(NC(=O)NCC(=O)O)cc3)CC2)ccc1O` [Example 378, {[(4-{4-[((2R)-2-Hydroxy-2-{4-hydroxy-3-[(methylsulfonyl)amino]phenyl}ethyl)amino]-1-piperidinyl}anilino)carbonyl]amino}acetic acid] the value was 0.94.
Same read-out and setting: for `O=C(CCl)Nc1ccc(N2CCC(NC[C@H](O)COc3cccc4[nH]c(=O)[nH]c34)CC2)cc1` [Example 382, 2-Chloro-N-{4-[4-({(2S)-2-hydroxy-3-[(2-oxo-2,3-dihydro-1H-benzimidazol-4-yl)oxy]propyl}amino)-1-piperidinyl]phenyl}acetamide] the value was 0.64; for `O=C(CN1CCOCC1)Nc1ccc(N2CCC(NC[C@H](O)COc3cccc4[nH]c(=O)[nH]c34)CC2)cc1` [Example 383, N-{4-[4-({(2S)-2-Hydroxy-3-[(2-oxo-2,3-dihydro-1H-benzimidazol-4-yl)oxy]propyl}-amino)-1-piperidinyl]phenyl}-2-(4-morpholinyl)acetamide], 0.64; for `CN(C)CC(=O)Nc1ccc(N2CCC(NC[C@H](O)COc3cccc4[nH]c(=O)[nH]c34)CC2)cc1` [Example 384, 2-(Dimethylamino)-N-{4-[4-({(2S)-2-hydroxy-3-[(2-oxo-2,3-dihydro-1H-benzimidazol-4-yl)oxy]propyl}amino)-1-piperidinyl]phenyl}acetamide], 0.64.
Regarding `COc1ccc(C(=O)Nc2ccc(N3CCC(NCC(O)c4ccc(O)c(NS(C)(=O)=O)c4)CC3)cc2)cc1OC` (stereo not shown) [Example 385, N-(4-{4-[(2-Hydroxy-2-{4-hydroxy-3-[(methylsulfonyl)amino]phenyl}ethyl)amino]-1-piperidinyl}phenyl)-3,4-dimethoxybenzamide], the “IA(β3)” value is 1.12.
In the case of `CCCCOc1ccc(S(=O)(=O)Nc2ccc(N3CC(NC[C@H](O)COc4ccc(O)cc4)C3)cc2)cc1` [Example 411, 4-Butoxy-N-[4-(3-{[(2S)-2-hydroxy-3-(4-hydroxyphenoxy)propyl]amino}-1-azetidinyl)phenyl]benzenesulfonamide], the “IA(β3)” value was 0.49.
Still for that read-out and setting: the figure for `COc1ccc(S(=O)(=O)Nc2ccc(N3CC(NC[C@H](O)COc4ccc(O)cc4)C3)cc2)cc1OC` [Example 412, N-[4-(3-{[(2S)-2-hydroxy-3-(4-hydroxyphenoxy)propyl]amino}-1-azetidinyl)phenyl]-3,4-dimethoxybenzenesulfonamide] is 0.56; for `CC(=O)Nc1ccc(S(=O)(=O)Nc2ccc(N3CC(NC[C@H](O)COc4ccc(O)cc4)C3)cc2)cc1` [Example 413, N-(4-{[4-(3-{[(2S)-2-Hydroxy-3-(4-hydroxyphenoxy)propyl]amino}-1-azetidinyl)anilino]-sulfonyl}phenyl)acetamide] it is 0.73; for `CC(=O)Nc1ccc(N2CC(NC[C@H](O)COc3cccc4[nH]c5ccccc5c34)C2)cc1` [Example 415, N-[4-(3-{[(2S)-3-(9H-Carbazol-4-yloxy)-2-hydroxypropyl]amino}-1-azetidinyl)phenyl]acetamide] it is 0.35.
The same measure, in the same setting: for `COc1ccc(S(=O)(=O)Nc2ccc(N3CC(NC[C@H](O)COc4cccc5[nH]c6ccccc6c45)C3)cc2)cc1OC` [Example 416, N-[4-(3-{[(2S)-3-(9H-Carbazol-4-yloxy)-2-hydroxypropyl]amino}-1-azetidinyl)phenyl]-3,4-dimethoxybenzenesulfonamide] the value was 0.48.
On the same count and under the same terms, for `CC(=O)Nc1ccc(S(=O)(=O)Nc2ccc(N3CC(NC[C@H](O)COc4cccc5[nH]c6ccccc6c45)C3)cc2)cc1` [Example 417, N-(4-{[4-(3-{[(2S)-3-(9H-Carbazol-4-yloxy)-2-hydroxypropyl]amino}-1-azetidinyl)anilino]sulfonyl}phenyl)acetamide] the value was 0.71.
